{"source": "patent US20150307938A1", "about": "“METHOD TO IDENTIFY A NOVEL CLASS OF IMMUNOLOGIC ADJUVANTS” (Lancell, L.L.C., priority 2011, published 2015)", "test_system": "skin", "assay": "Affymetrix microarray of skin, DBP-4 hr and analogs vs. untreated; gene selection by log-2 fold change, Wilcoxon, Kendall tau (Tables 8, 9)", "format": "in vivo, mouse", "conditions": "DBP-4 hr vs. untreated", "data": [{"smiles": "CCCCOC(=O)c1ccccc1C(=O)OCCCC", "note": "[DBP, dibutylphthalate]", "values": [{"measurement": "NA (AFFX-BioC-3_at) Wilcoxon", "value": "Yes"}, {"measurement": "NA (AFFX-BioC-5_at) Wilcoxon", "value": "Yes"}, {"measurement": "NA (AFFX-BioDn-3_at) Wilcoxon", "value": "Yes"}, {"measurement": "NA (AFFX-BioDn-5_at) Wilcoxon", "value": "Yes"}, {"measurement": "NA (AFFX-ThrX-5_at) Wilcoxon", "value": "Yes"}, {"measurement": "Nfil3 (NM_017373_at) Wilcoxon", "value": "Yes"}, {"measurement": "Nfkbia (NM_010907_at) Wilcoxon", "value": "No"}, {"measurement": "Nfkbiz (NM_030612_at) Wilcoxon", "value": "Yes"}, {"measurement": "Nr4a2 (NM_013613_at) Wilcoxon", "value": "Yes"}, {"measurement": "Otud7a (NM_130880_at) Wilcoxon", "value": "No"}, {"measurement": "Pde4b (NM_019840_at) Wilcoxon", "value": "Yes"}, {"measurement": "Pdk4 (NM_013743_at) Wilcoxon", "value": "Yes"}, {"measurement": "Plaur (NM_011113_at) Wilcoxon", "value": "No"}, {"measurement": "Plek (NM_019549_at) Wilcoxon", "value": "Yes"}, {"measurement": "Plscr1 (NM_011636_at) Wilcoxon", "value": "No"}, {"measurement": "Pmaip1 (NM_021451_at) Wilcoxon", "value": "Yes"}, {"measurement": "Prss22 (NM_133731_at) Wilcoxon", "value": "Yes"}, {"measurement": "Ptges (NM_022415_at) Wilcoxon", "value": "No"}, {"measurement": "Pyy (NM_145435_at) Wilcoxon", "value": "Yes"}, {"measurement": "Rab20 (NM_011227_at) Wilcoxon", "value": "Yes"}, {"measurement": "Ramp3 (NM_019511_at) Wilcoxon", "value": "No"}, {"measurement": "Rgs1 (NM_015811_at) Wilcoxon", "value": "Yes"}, {"measurement": "Rnf19b (NM_029219_at) Wilcoxon", "value": "No"}, {"measurement": "Saa3 (NM_011315_at) Wilcoxon", "value": "Yes"}, {"measurement": "Slc5a1 (NM_019810_at) Wilcoxon", "value": "Yes"}, {"measurement": "Slc7a5 (NM_011404_at) Wilcoxon", "value": "Yes"}, {"measurement": "Slc10a6 (NM_029415_at) Wilcoxon", "value": "No"}, {"measurement": "Slc15a3 (NM_023044_at) Wilcoxon", "value": "No"}, {"measurement": "Slc25a25 (NM_146118_at) Wilcoxon", "value": "No"}, {"measurement": "Slc34a2 (NM_011402_at) Wilcoxon", "value": "Yes"}, {"measurement": "Slc39a8 (NM_026228_at) Wilcoxon", "value": "Yes"}, {"measurement": "Slfn2 (NM_011408_at) Wilcoxon", "value": "Yes"}, {"measurement": "Slfn4 (NM_011410_at) Wilcoxon", "value": "Yes"}, {"measurement": "Slpi (NM_011414_at) Wilcoxon", "value": "Yes"}, {"measurement": "Smox (NM_145533_at) Wilcoxon", "value": "Yes"}, {"measurement": "Stfa3 (NM_025288_at) Wilcoxon", "value": "Yes"}, {"measurement": "Timp1 (NM_011593_at) Wilcoxon", "value": "Yes"}, {"measurement": "Tlr2 (NM_011905_at) Wilcoxon", "value": "Yes"}, {"measurement": "Tnf (NM_013693_at) Wilcoxon", "value": "Yes"}, {"measurement": "Tnfrsf12a (NM_013749_at) Wilcoxon", "value": "Yes"}, {"measurement": "Tslp (NM_021367_at) Wilcoxon", "value": "Yes"}, {"measurement": "Tslp (NR_033206_at) Wilcoxon", "value": "Yes"}, {"measurement": "Tubb6 (NM_026473_at) Wilcoxon", "value": "Yes"}, {"measurement": "Uap1 (NM_133806_at) Wilcoxon", "value": "No"}, {"measurement": "Zc3h12a (NM_153159_at) Wilcoxon", "value": "Yes"}, {"measurement": "Zfp36 (NM_011756_at) Wilcoxon", "value": "Yes"}, {"measurement": "Zfp593 (NM_024215_at) Wilcoxon", "value": "No"}, {"measurement": "1110032A04Rik NM_133675_at Wilcoxon", "setting": "rank-sum p-value", "value": "Yes"}, {"measurement": "2510002D24Rik NM_001033164_at Wilcoxon", "setting": "rank-sum p-value", "value": "No"}, {"measurement": "2510009E07Rik NM_001001881_at Wilcoxon", "setting": "rank-sum p-value", "value": "No"}, {"measurement": "2610528A11Rik XR_105647_at Wilcoxon", "setting": "rank-sum p-value", "value": "Yes"}, {"measurement": "1500015010Rik NM_024283_at Wilcoxon", "setting": "rank-sum p-value", "value": "Yes"}, {"measurement": "3110079015Rik NM_028473_at Wilcoxon", "setting": "rank-sum p-value", "value": "Yes"}, {"measurement": "A2m NM_175628_at Wilcoxon", "setting": "rank-sum p-value", "value": "Yes"}, {"measurement": "AY026312 NM_133359_at Wilcoxon", "setting": "rank-sum p-value", "value": "Yes"}, {"measurement": "Actn2 NM_033268_at Wilcoxon", "setting": "rank-sum p-value", "value": "Yes"}, {"measurement": "Akr1c14 NM_134072_at Wilcoxon", "setting": "rank-sum p-value", "value": "Yes"}, {"measurement": "Aldh7a1 NM_001127338_at Wilcoxon", "setting": "rank-sum p-value", "value": "No"}, {"measurement": "Aox4 NM_023631_at Wilcoxon", "setting": "rank-sum p-value", "value": "Yes"}, {"measurement": "Asb5 NM_029569_at Wilcoxon", "setting": "rank-sum p-value", "value": "Yes"}, {"measurement": "Atp2a2 NM_001110140_at Wilcoxon", "setting": "rank-sum p-value", "value": "No"}, {"measurement": "Atp13a3 NM_001128094_at Wilcoxon", "setting": "rank-sum p-value", "value": "No"}, {"measurement": "Atp13a3 NM_001128096_at Wilcoxon", "setting": "rank-sum p-value", "value": "No"}, {"measurement": "Bcr NM_001081412_at Wilcoxon", "setting": "rank-sum p-value", "value": "No"}, {"measurement": "Camk2g NM_001039138_at Wilcoxon", "setting": "rank-sum p-value", "value": "No"}, {"measurement": "Camk2g NM_001039139_at Wilcoxon", "setting": "rank-sum p-value", "value": "No"}, {"measurement": "Ccl8 NM_021443_at Wilcoxon", "setting": "rank-sum p-value", "value": "Yes"}, {"measurement": "Ccl24 NM_019577_at Wilcoxon", "setting": "rank-sum p-value", "value": "Yes"}, {"measurement": "Cd209d NM_130904_at Wilcoxon", "setting": "rank-sum p-value", "value": "Yes"}, {"measurement": "Ckmt2 NM_198415_at Wilcoxon", "setting": "rank-sum p-value", "value": "Yes"}, {"measurement": "Cldn8 NM_018778_at Wilcoxon", "setting": "rank-sum p-value", "value": "Yes"}, {"measurement": "Clec4n NM_020001_at Wilcoxon", "setting": "rank-sum p-value", "value": "Yes"}, {"measurement": "Cmya5 NM_023821_at Wilcoxon", "setting": "rank-sum p-value", "value": "Yes"}, {"measurement": "Comp NM_016685_at Wilcoxon", "setting": "rank-sum p-value", "value": "Yes"}, {"measurement": "Corin NM_016869_at Wilcoxon", "setting": "rank-sum p-value", "value": "Yes"}, {"measurement": "Crispld1 NM_031402_at Wilcoxon", "setting": "rank-sum p-value", "value": "Yes"}, {"measurement": "Cxcl10 NM_021274_at Wilcoxon", "setting": "rank-sum p-value", "value": "Yes"}, {"measurement": "Cxcr6 NM_030712_at Wilcoxon", "setting": "rank-sum p-value", "value": "Yes"}, {"measurement": "Cyth1 NM_001112699_at Wilcoxon", "setting": "rank-sum p-value", "value": "No"}, {"measurement": "Cyth1 NM_001112700_at Wilcoxon", "setting": "rank-sum p-value", "value": "No"}, {"measurement": "Dbp NM_016974_at Wilcoxon", "setting": "rank-sum p-value", "value": "Yes"}, {"measurement": "Deptor NM_001037937_at Wilcoxon", "setting": "rank-sum p-value", "value": "No"}, {"measurement": "Dlgap4 NM_001042487_at Wilcoxon", "setting": "rank-sum p-value", "value": "No"}, {"measurement": "Dlgap4 NM_001042488_at Wilcoxon", "setting": "rank-sum p-value", "value": "No"}, {"measurement": "Ear5 NM_019398_at Wilcoxon", "setting": "rank-sum p-value", "value": "Yes"}, {"measurement": "Fam134b NM_001034851_at Wilcoxon", "setting": "rank-sum p-value", "value": "No"}, {"measurement": "Gcdh NM_001044744_at Wilcoxon", "setting": "rank-sum p-value", "value": "No"}, {"measurement": "Gm10228 XM_001474297_at Wilcoxon", "setting": "rank-sum p-value", "value": "Yes"}, {"measurement": "Gm10228 XM_003086004_at Wilcoxon", "setting": "rank-sum p-value", "value": "Yes"}]}]}
